PubChem BioAssay (NCI)
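Where inhibition never reached the appropriate level, the endpoint shown equals the highest concentration tested. Otherwise, values were interpolated linearly from a five-concentration, 48-hour dose response in 96-well plates. At the GI50, growth is halved. The concentration for full growth arrest is given as TGI.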

How the values were obtained:
Experiment in all cases: DTP human tumour cell line panel, 48 h
IGROV1 ovarian = test system: IGROV1 ovarian
NCI-H226 lung = test system: NCI-H226 lung
SK-MEL-28 melanoma = test system: SK-MEL-28 melanoma
OVCAR-4 ovarian = test system: OVCAR-4 ovarian
NCI-H460 lung = test system: NCI-H460 lung
OVCAR-5 ovarian = test system: OVCAR-5 ovarian
HOP-92 NSCLC = test system: HOP-92 NSCLC
SF-268 CNS = test system: SF-268 CNS
MCF7 breast = test system: MCF7 breast
PC-3 prostate = test system: PC-3 prostate
BT-549 breast = test system: BT-549 breast

## COC(=O)CCC(=O)c1ccc2c(c1)CC1(C2)Cc2ccc3c(c2C1)CCCC3=O (centres undefined)
IGROV1 ovarian
  TGI: > 100 µM
NCI-H226 lung
  TGI: 85.6 µM
SK-MEL-28 melanoma
  TGI: > 100 µM
OVCAR-4 ovarian
  TGI: > 74 µM
NCI-H460 lung
  TGI: > 100 µM
OVCAR-5 ovarian
  TGI: > 100 µM
HOP-92 NSCLC
  TGI: 64.7 µM
SF-268 CNS
  TGI: > 100 µM
MCF7 breast
  TGI: 69.9 µM
PC-3 prostate
  TGI: > 79.9 µM

## Cc1cc(-c2nc3cc(F)c(F)cc3s2)ccc1N
SK-MEL-28 melanoma
  TGI: > 100 µM
OVCAR-4 ovarian
  TGI: > 100 µM
NCI-H460 lung
  TGI: > 100 µM
OVCAR-5 ovarian
  TGI: > 100 µM
HOP-92 NSCLC
  TGI: > 100 µM
SF-268 CNS
  TGI: > 100 µM
MCF7 breast
  TGI: > 100 µM
BT-549 breast
  TGI: > 100 µM
PC-3 prostate
  TGI: > 100 µM

## Cc1cc(-c2ccccc2)cc2[n+]1CC=C2
NCI-H226 lung
  TGI: > 100 µM
SK-MEL-28 melanoma
  TGI: > 100 µM
OVCAR-4 ovarian
  TGI: > 100 µM
NCI-H460 lung
  TGI: > 100 µM
OVCAR-5 ovarian
  TGI: > 100 µM
HOP-92 NSCLC
  TGI: 94.8 µM
SF-268 CNS
  TGI: > 100 µM

## COC1(C)C=NCC(C)(C)NC(=O)C(C)(OC)C=NCC(C)(C)NC1=O (centres undefined)
IGROV1 ovarian
  TGI: > 10 µM
SK-MEL-28 melanoma
  TGI: > 10 µM
OVCAR-4 ovarian
  TGI: > 10 µM
HOP-92 NSCLC
  TGI: > 10 µM
SF-268 CNS
  TGI: > 10 µM
MCF7 breast
  TGI: > 10 µM
BT-549 breast
  TGI: > 10 µM
PC-3 prostate
  TGI: > 10 µM

## CC1OC(OC2CC(O)(C(=O)CO)Cc3c(O)c4c(c(O)c32)C(=O)c2ccccc2C4=O)CC(N)C1O (centres undefined)
IGROV1 ovarian
  TGI: 3.52 µM
NCI-H226 lung
  TGI: < 0.0228 µM
SK-MEL-28 melanoma
  TGI: 0.368 µM
OVCAR-4 ovarian
  TGI: 3.15 µM
NCI-H460 lung
  TGI: 0.0366 µM
OVCAR-5 ovarian
  TGI: 0.721 µM
HOP-92 NSCLC
  TGI: 1.04 µM
SF-268 CNS
  TGI: 0.549 µM
BT-549 breast
  TGI: 4.03 µM
PC-3 prostate
  TGI: 0.954 µM

## CC(C)(C)NC1C2CCC(C)(C1O)C2(C)C (centres undefined)
IGROV1 ovarian
  TGI: > 100 µM
SK-MEL-28 melanoma
  TGI: > 100 µM
OVCAR-4 ovarian
  TGI: > 100 µM
NCI-H460 lung
  TGI: > 100 µM
OVCAR-5 ovarian
  TGI: > 100 µM
SF-268 CNS
  TGI: > 100 µM
MCF7 breast
  TGI: 14.7 µM
BT-549 breast
  TGI: > 100 µM
PC-3 prostate
  TGI: > 100 µM

## CCNc1ncnc2n[nH]nc12
IGROV1 ovarian
  TGI: > 100 µM
NCI-H226 lung
  TGI: > 100 µM
SK-MEL-28 melanoma
  TGI: > 100 µM
OVCAR-4 ovarian
  TGI: > 100 µM
HOP-92 NSCLC
  TGI: > 100 µM
MCF7 breast
  TGI: > 100 µM
PC-3 prostate
  TGI: > 100 µM

## CCOC(=O)C1(Cc2ccccc2)Cc2ccccc2C1=O (centres undefined)
IGROV1 ovarian
  TGI: > 100 µM
NCI-H226 lung
  TGI: 58.6 µM
SK-MEL-28 melanoma
  TGI: 92.5 µM
OVCAR-4 ovarian
  TGI: > 100 µM
NCI-H460 lung
  TGI: > 100 µM
OVCAR-5 ovarian
  TGI: > 100 µM
HOP-92 NSCLC
  TGI: 56 µM
SF-268 CNS
  TGI: > 100 µM
MCF7 breast
  TGI: > 100 µM
PC-3 prostate
  TGI: > 100 µM

## COc1cc(/C=C(\C#N)c2ccccn2)cc(Br)c1O
IGROV1 ovarian
  TGI: > 100 µM
NCI-H226 lung
  TGI: > 100 µM
SK-MEL-28 melanoma
  TGI: > 100 µM
OVCAR-4 ovarian
  TGI: > 100 µM
NCI-H460 lung
  TGI: > 100 µM
OVCAR-5 ovarian
  TGI: > 100 µM
SF-268 CNS
  TGI: > 100 µM
MCF7 breast
  TGI: > 100 µM
BT-549 breast
  TGI: > 100 µM
PC-3 prostate
  TGI: > 100 µM

## CC(C)(O)[C@H](CCO)O[Si](c1ccccc1)(c1ccccc1)C(C)(C)C
IGROV1 ovarian
  TGI: 25.3 µM
SK-MEL-28 melanoma
  TGI: 29 µM
NCI-H460 lung
  TGI: 26.7 µM
OVCAR-5 ovarian
  TGI: 28.1 µM
HOP-92 NSCLC
  TGI: 23.5 µM
SF-268 CNS
  TGI: 26.7 µM

## COc1cc(C=O)c(-c2cc3c(cc2C=O)OCO3)c(OC)c1OC
IGROV1 ovarian
  TGI: > 290 µM
NCI-H226 lung
  TGI: 280 µM
SK-MEL-28 melanoma
  TGI: > 290 µM
NCI-H460 lung
  TGI: > 290 µM
OVCAR-5 ovarian
  TGI: > 290 µM
HOP-92 NSCLC
  TGI: 241 µM
SF-268 CNS
  TGI: > 290 µM

## NC(CCCCNC(=O)C(Cc1ccccc1)NC(=O)OCc1ccccc1)C(=O)NC(CCCCNC(=O)C(Cc1ccccc1)NC(=O)OCc1ccccc1)C(=O)NC(CCCCNC(=O)C(Cc1ccccc1)NC(=O)OCc1ccccc1)C(=O)NC(CCCCNC(=O)C(Cc1ccccc1)NC(=O)OCc1ccccc1)C(=O)NC(CCCCNC(=O)C(Cc1ccccc1)NC(=O)OCc1ccccc1)C(=O)NC(CCCCNC(=O)C(Cc1ccccc1)NC(=O)OCc1ccccc1)C(=O)O (centres undefined)
IGROV1 ovarian
  TGI: > 100 µM
NCI-H226 lung
  TGI: > 100 µM
SK-MEL-28 melanoma
  TGI: > 100 µM
OVCAR-4 ovarian
  TGI: > 100 µM
NCI-H460 lung
  TGI: > 100 µM
OVCAR-5 ovarian
  TGI: > 100 µM
SF-268 CNS
  TGI: > 100 µM
MCF7 breast
  TGI: > 100 µM
BT-549 breast
  TGI: > 100 µM
PC-3 prostate
  TGI: > 100 µM

## CC1=NN(C(=O)Cc2ccccc2)C(=O)/C1=C\c1ccco1
NCI-H226 lung
  TGI: > 100 µM
SK-MEL-28 melanoma
  TGI: > 100 µM
OVCAR-4 ovarian
  TGI: > 100 µM
OVCAR-5 ovarian
  TGI: > 100 µM
SF-268 CNS
  TGI: > 100 µM

## CN(C(=O)c1cccs1)C(=S)N1CCN(c2ccccc2)CC1
IGROV1 ovarian
  TGI: > 100 µM
NCI-H226 lung
  TGI: > 100 µM
SK-MEL-28 melanoma
  TGI: > 100 µM
OVCAR-4 ovarian
  TGI: > 100 µM
NCI-H460 lung
  TGI: > 100 µM
OVCAR-5 ovarian
  TGI: > 100 µM
HOP-92 NSCLC
  TGI: > 100 µM
SF-268 CNS
  TGI: > 100 µM
MCF7 breast
  TGI: > 100 µM
BT-549 breast
  TGI: > 100 µM

## COc1cc([C@@H]2c3cc4c(c(O)c3C[C@H]3COC(=O)[C@@H]32)OCO4)cc(OC)c1O
IGROV1 ovarian
  GI50: 0.00276 µM
  TGI: > 128 µM
NCI-H226 lung
  GI50: 0.00562 µM
SK-MEL-28 melanoma
  TGI: > 200 µM
OVCAR-4 ovarian
  TGI: > 200 µM
OVCAR-5 ovarian
  TGI: > 200 µM
HOP-92 NSCLC
  GI50: 0.00576 µM
  TGI: 0.113 µM
SF-268 CNS
  GI50: 0.0043 µM
  TGI: > 200 µM
MCF7 breast
  TGI: > 200 µM

## CC1(C)C2CCC1(CC(=O)O)C(Cl)C2 (centres undefined)
IGROV1 ovarian
  TGI: > 100 µM
NCI-H226 lung
  TGI: > 100 µM
SK-MEL-28 melanoma
  TGI: > 100 µM
OVCAR-4 ovarian
  TGI: > 100 µM
NCI-H460 lung
  TGI: > 100 µM
OVCAR-5 ovarian
  TGI: > 100 µM
SF-268 CNS
  TGI: > 100 µM
MCF7 breast
  TGI: > 100 µM
BT-549 breast
  TGI: > 100 µM
PC-3 prostate
  TGI: > 100 µM

## CCOC(=O)c1cc(-c2ccc(Cl)cc2)c([N+](=O)[O-])n1C
IGROV1 ovarian
  TGI: > 10 µM
NCI-H226 lung
  TGI: > 10 µM
OVCAR-4 ovarian
  TGI: > 10 µM
NCI-H460 lung
  TGI: > 10 µM
OVCAR-5 ovarian
  TGI: > 10 µM
HOP-92 NSCLC
  TGI: > 10 µM
SF-268 CNS
  TGI: > 10 µM
BT-549 breast
  TGI: > 10 µM

## Cc1nc2c(ncn2CCO)c(=O)[nH]1
IGROV1 ovarian
  TGI: > 100 µM
NCI-H226 lung
  TGI: > 100 µM
SK-MEL-28 melanoma
  TGI: > 100 µM
OVCAR-4 ovarian
  TGI: > 100 µM
NCI-H460 lung
  TGI: > 100 µM
OVCAR-5 ovarian
  TGI: > 100 µM
SF-268 CNS
  TGI: > 100 µM
MCF7 breast
  TGI: > 100 µM
PC-3 prostate
  TGI: > 100 µM

## N=c1oc2c(Cl)cc(Cl)cc2cc1C(=O)Nc1ccccn1
NCI-H226 lung
  TGI: > 100 µM
SK-MEL-28 melanoma
  TGI: > 100 µM
OVCAR-4 ovarian
  TGI: > 100 µM
NCI-H460 lung
  TGI: > 100 µM
OVCAR-5 ovarian
  TGI: > 100 µM
SF-268 CNS
  TGI: > 100 µM
MCF7 breast
  TGI: > 100 µM
BT-549 breast
  TGI: > 100 µM
PC-3 prostate
  TGI: > 100 µM

## Cc1cc(NCCCCCCNc2cc(C)nc3ccc(Cl)cc23)c2cc(Cl)ccc2n1
NCI-H226 lung
  TGI: > 100 µM
SK-MEL-28 melanoma
  TGI: 32 µM
OVCAR-4 ovarian
  TGI: 34.8 µM
NCI-H460 lung
  TGI: 29.8 µM
OVCAR-5 ovarian
  TGI: 34.7 µM
SF-268 CNS
  TGI: 32.5 µM

## CCc1n[nH]c(=O)n1NC(=O)/C=C\C(=O)O
IGROV1 ovarian
  TGI: > 100 µM
NCI-H226 lung
  TGI: > 100 µM
OVCAR-4 ovarian
  TGI: > 100 µM
NCI-H460 lung
  TGI: > 100 µM
OVCAR-5 ovarian
  TGI: > 100 µM
SF-268 CNS
  TGI: > 100 µM
MCF7 breast
  TGI: > 100 µM
BT-549 breast
  TGI: > 100 µM
PC-3 prostate
  TGI: > 100 µM

## COC(=O)NN1C(=O)C(=P(c2ccccc2)(c2ccccc2)c2ccccc2)C(C(=O)OC)=C1C
IGROV1 ovarian
  TGI: > 100 µM
NCI-H226 lung
  TGI: > 100 µM
SK-MEL-28 melanoma
  TGI: > 100 µM
NCI-H460 lung
  TGI: > 100 µM
HOP-92 NSCLC
  TGI: 79.5 µM
SF-268 CNS
  TGI: > 100 µM

## COc1ccc([C@@H]2CC(=O)NCCCCNCCCN2)cc1
IGROV1 ovarian
  TGI: > 100 µM
NCI-H226 lung
  TGI: > 100 µM
SK-MEL-28 melanoma
  TGI: > 100 µM
OVCAR-4 ovarian
  TGI: > 100 µM
NCI-H460 lung
  TGI: > 100 µM
OVCAR-5 ovarian
  TGI: > 100 µM
HOP-92 NSCLC
  TGI: > 100 µM
SF-268 CNS
  TGI: > 100 µM
